Laboratory results reported in US12459932B2, “KIF18A inhibitors” (AMGEN INC., priority 2018, dated 2025).

Target: T1, Recombinant human KIF18A (1-467 His-tagged) (Homo sapiens, UniProt Q8NI77)
T1 construct: Recombinant human KIF18A (1-467 His-tagged) protein; His
Assay: KIF18A Enzyme Assay: microtubule-stimulated ATPase activity (ADP-Glo)
Format: biochemical
Conditions: 30 nM KIF18A, 30 μg/mL pig microtubules, ATP 75 μM (Km), ADP-Glo luminescence
Outline: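 Measures microtubule-stimulated ATPase activity as ADP formed, detected by luminescence. Compounds were tested as 2-fold serial dilutions over 22 points. IC50 values came from four-parameter logistic fits.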

T1 sequence (Q8NI77 1-467): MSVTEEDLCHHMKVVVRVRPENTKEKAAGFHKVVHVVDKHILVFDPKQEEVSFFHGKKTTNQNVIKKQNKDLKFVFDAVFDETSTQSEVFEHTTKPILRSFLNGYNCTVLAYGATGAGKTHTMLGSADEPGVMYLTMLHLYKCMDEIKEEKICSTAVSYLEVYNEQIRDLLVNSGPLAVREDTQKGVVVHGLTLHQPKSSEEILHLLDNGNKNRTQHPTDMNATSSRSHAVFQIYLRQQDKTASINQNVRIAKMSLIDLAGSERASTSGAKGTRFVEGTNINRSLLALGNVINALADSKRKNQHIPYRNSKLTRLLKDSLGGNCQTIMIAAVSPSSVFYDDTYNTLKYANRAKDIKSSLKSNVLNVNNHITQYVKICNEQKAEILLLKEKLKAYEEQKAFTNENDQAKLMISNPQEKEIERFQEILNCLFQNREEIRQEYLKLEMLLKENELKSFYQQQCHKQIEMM
T1 sequence (P02550 whole entry partner): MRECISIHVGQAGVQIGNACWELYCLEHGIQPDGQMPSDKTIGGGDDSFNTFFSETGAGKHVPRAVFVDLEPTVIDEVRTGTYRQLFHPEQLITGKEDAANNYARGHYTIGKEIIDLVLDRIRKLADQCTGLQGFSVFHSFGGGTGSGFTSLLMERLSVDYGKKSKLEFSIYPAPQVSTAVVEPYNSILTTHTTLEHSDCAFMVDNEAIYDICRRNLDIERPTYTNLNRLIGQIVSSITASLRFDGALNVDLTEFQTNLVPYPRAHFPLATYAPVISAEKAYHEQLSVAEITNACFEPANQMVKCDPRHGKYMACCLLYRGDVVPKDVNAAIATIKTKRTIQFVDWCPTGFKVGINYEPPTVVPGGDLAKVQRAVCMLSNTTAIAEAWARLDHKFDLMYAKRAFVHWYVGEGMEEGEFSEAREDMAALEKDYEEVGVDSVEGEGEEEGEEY
T1 sequence (P02554 whole entry partner): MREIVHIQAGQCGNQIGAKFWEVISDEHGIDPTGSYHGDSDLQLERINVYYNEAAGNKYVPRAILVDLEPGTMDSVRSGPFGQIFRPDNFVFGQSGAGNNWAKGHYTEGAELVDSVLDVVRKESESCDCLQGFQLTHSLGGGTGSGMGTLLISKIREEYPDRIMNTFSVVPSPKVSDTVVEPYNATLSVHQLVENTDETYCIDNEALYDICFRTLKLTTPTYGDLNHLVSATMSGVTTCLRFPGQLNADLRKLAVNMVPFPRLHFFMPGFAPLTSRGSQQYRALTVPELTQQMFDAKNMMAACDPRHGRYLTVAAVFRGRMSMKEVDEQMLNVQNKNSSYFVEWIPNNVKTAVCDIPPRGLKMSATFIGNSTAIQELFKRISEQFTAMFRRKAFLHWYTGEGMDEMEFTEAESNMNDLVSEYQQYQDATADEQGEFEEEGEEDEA

Row | SMILES | IC50
1 | C[C@@H]1CN(c2cccc(NC(=O)c3ccc(S(=O)(=O)NC4(C)COC4)cc3N3CCC4(CC3)CC4)n2)CCO1 [Example 4-11, (R)-N-(6-(2-Methylmorpholino)pyridin-2-yl)-4-(N-(3-methyloxetan-3-yl)sulfamoyl)-2-(6-azaspiro[2.5]octan-6-yl)benzamide] | 43 nM
2 | CS(=O)(=O)c1ccc(C(=O)Nc2cccc(N3CCOCC3)n2)c(N2CCC3(CC2)CC3)c1 [Example 4-12, 4-(Methylsulfonyl)-N-(6-morpholinopyridin-2-yl)-2-(6-azaspiro[2.5]octan-6-yl)benzamide] | 118 nM
3 | C[C@@H]1CN(c2cccc(NC(=O)c3ccc(S(C)(=O)=O)cc3N3CCC4(CC3)CC4)n2)CCO1 [Example 4-13, (R)-N-(6-(2-Methylmorpholino)pyridin-2-yl)-4-(methylsulfonyl)-2-(6-azaspiro[2.5]octan-6-yl)benzamide] | 69 nM
4 | C[C@@H]1CN(c2cccc(NC(=O)c3ccc(NS(=O)(=O)C4(C)CC4)cc3N3CCC4(CC3)CC4)n2)CCO1 [Example 4-14, (R)-4-((1-Methylcyclopropane)-1-sulfonamido)-N-(6-(2-methylmorpholino)pyridin-2-yl)-2-(6-azaspiro[2.5]octan-6-yl)benzamide] | 66 nM
5 | C[C@@H]1CN(c2cccc(NC(=O)c3ccc(CS(C)(=O)=O)cc3N3CCC4(CC3)CC4)n2)CCO1 [Example 4-15, (R)-N-(6-(2-Methylmorpholino)pyridin-2-yl)-4-((methylsulfonyl)methyl)-2-(6-azaspiro[2.5]octan-6-yl)benzamide] | 85 nM
6 | Cc1cc(NC(=O)c2ccc(CS(C)(=O)=O)cc2N2CCC3(CC2)CC3)nc(N2CCOCC2)c1 [Example 4-16, N-(4-Methyl-6-morpholinopyridin-2-yl)-4-((methylsulfonyl)methyl)-2-(6-azaspiro[2.5]octan-6-yl)benzamide] | 145 nM
7 | Cc1cc(NC(=O)c2ccc(NS(=O)(=O)C3(C)CC3)cc2N2CCC3(CC2)CC3)nc(C(C)(C)O)c1 [Example 4-17, N-(6-(2-Hydroxypropan-2-yl)-4-methylpyridin-2-yl)-4-((1-methylcyclopropane)-1-sulfonamido)-2-(6-azaspiro[2.5]octan-6-yl)benzamide] | 163 nM
8 | Cc1cc(NC(=O)c2ccc(S(=O)(=O)NC3(C)COC3)cc2N2CCC3(CC2)CC3)nc(C(C)(C)O)c1 [Example 4-18, N-(6-(2-Hydroxypropan-2-yl)-4-methylpyridin-2-yl)-4-(N-(3-methyloxetan-3-yl)sulfamoyl)-2-(6-azaspiro[2.5]octan-6-yl)benzamide] | 89 nM
9 | O=C(Nc1cccc(OCCC(F)(F)F)n1)c1ccc(NS(=O)(=O)CCO)cc1N1CCC2(CC1)CC2 [Example 5, 4-((2-Hydroxyethyl)sulfonamido)-2-(6-azaspiro[2.5]octan-6-yl)-N-(6-(3,3,3-trifluoropropoxy)pyridin-2-yl)benzamide] | 25 nM
10 | Cc1cc(NC(=O)c2ccc(NS(=O)(=O)CCO)cc2N2CCC3(CC2)CC3)nc(N2CCC(F)(F)CC2)c1 [Example 6, N-(6-(4,4-Difluoropiperidin-1-yl)-4-methylpyridin-2-yl)-4-((2-hydroxyethyl)sulfonamido)-2-(6-azaspiro[2.5]octan-6-yl)benzamide] | 47 nM
11 | Cc1cc(NC(=O)c2ccc(NS(=O)(=O)CCO)cc2N2CCC3(CC2)CC3)nc(C2CC(F)(F)C2)c1 [Example 7-1, N-(6-(3,3-Difluorocyclobutyl)-4-methylpyridin-2-yl)-4-((2-hydroxyethyl)sulfonamido)-2-(6-azaspiro[2.5]octan-6-yl)benzamide] | 45 nM
12 | C[C@@H]1CN(c2cccc(NC(=O)c3ccc(NS(C)(=O)=O)cc3N3CCC4(CC3)CC4)n2)CCO1 [Example 7-2, (R)-N-(6-(2-Methylmorpholino)pyridin-2-yl)-4-(methylsulfonamido)-2-(6-azaspiro[2.5]octan-6-yl)benzamide] | 39 nM
13 | C[C@@H]1CN(c2cccc(NC(=O)c3ccc(N4CCCS4(=O)=O)cc3N3CCC4(CC3)CC4)n2)CCO1 [Example 7-3, (R)-4-(1,1-Dioxidoisothiazolidin-2-yl)-N-(6-(2-methylmorpholino)pyridin-2-yl)-2-(6-azaspiro[2.5]octan-6-yl)benzamide] | 76 nM
14 | C[C@@H]1CN(c2cccc(NC(=O)c3ccc(N4CCNS4(=O)=O)cc3N3CCC4(CC3)CC4)n2)CCO1 [Example 7-4, (R)-4-(1,1-Dioxido-1,2,5-thiadiazolidin-2-yl)-N-(6-(2-methylmorpholino)pyridin-2-yl)-2-(6-azaspiro[2.5]octan-6-yl)benzamide] | 287 nM
15 | C[C@@H]1CN(c2cccc(NC(=O)c3ccc(NS(=O)(=O)N(C)C)cc3N3CCC4(CC3)CC4)n2)CCO1 [Example 7-5, (R)-4-((N,N-Dimethylsulfamoyl)amino)-N-(6-(2-methylmorpholino)pyridin-2-yl)-2-(6-azaspiro[2.5]octan-6-yl)benzamide] | 55 nM
16 | C[C@@H]1CN(c2cccc(NC(=O)c3ccc(N4CCS4(=O)=O)cc3N3CCC4(CC3)CC4)n2)CCO1 [Example 7-6, (R)-4-(1,1-Dioxido-1,2-thiazetidin-2-yl)-N-(6-(2-methylmorpholino)pyridin-2-yl)-2-(6-azaspiro[2.5]octan-6-yl)benzamide] | 98 nM
17 | C[C@@H]1CN(c2cccc(NC(=O)c3ccc(NS(=O)(=O)C(F)F)cc3N3CCC4(CC3)CC4)n2)CCO1 [Example 7-7, (R)-4-((Difluoromethyl)sulfonamido)-N-(6-(2-methylmorpholino)pyridin-2-yl)-2-(6-azaspiro[2.5]octan-6-yl)benzamide] | 49 nM
18 | CCS(=O)(=O)Nc1ccc(C(=O)Nc2cc(C)cc(N3CCO[C@H](C)C3)n2)c(N2CCC3(CC2)CC3)c1 [Example 7-8, (R)-4-(Ethylsulfonamido)-N-(4-methyl-6-(2-methylmorpholino)pyridin-2-yl)-2-(6-azaspiro[2.5]octan-6-yl)benzamide] | 72 nM
19 | C[C@@H]1CN(c2cccc(NC(=O)c3ccc(NS(=O)(=O)C4CCC4)cc3N3CCC4(CC3)CC4)n2)CCO1 [Example 7-9, (R)-4-(Cyclobutanesulfonamido)-N-(6-(2-methylmorpholino)pyridin-2-yl)-2-(6-azaspiro[2.5]octan-6-yl)benzamide] | 62 nM
20 | C[C@@H]1CN(c2cccc(NC(=O)c3ccc(NS(=O)(=O)C4COC4)cc3N3CCC4(CC3)CC4)n2)CCO1 [Example 7-10, (R)-N-(6-(2-Methylmorpholino)pyridin-2-yl)-4-(oxetane-3-sulfonamido)-2-(6-azaspiro[2.5]octan-6-yl)benzamide] | 63 nM
21 | Cc1cc(NC(=O)c2ccc(NS(=O)(=O)C3COC3)cc2N2CCC3(CC2)CC3)nc(N2CCC(F)(F)CC2)c1 [Example 7-11, N-(6-(4,4-Difluoropiperidin-1-yl)-4-methylpyridin-2-yl)-4-(oxetane-3-sulfonamido)-2-(6-azaspiro[2.5]octan-6-yl)benzamide] | 81 nM
22 | C[C@@H]1CN(c2cccc(NC(=O)c3ccc(NS(=O)(=O)CCO)cc3N3CCC4(CC3)CC4)n2)CCO1 [Example 7-12, (R)-4-((2-Hydroxyethyl)sulfonamido)-N-(6-(2-methylmorpholino)pyridin-2-yl)-2-(6-azaspiro[2.5]octan-6-yl)benzamide] | 30 nM
23 | C[C@H]1CN(c2cccc(NC(=O)c3ccc(NS(=O)(=O)CCO)cc3N3CCC4(CC3)CC4)n2)CCO1 [Example 7-13, (S)-4-((2-Hydroxyethyl)sulfonamido)-N-(6-(2-methylmorpholino)pyridin-2-yl)-2-(6-azaspiro[2.5]octan-6-yl)benzamide] | 46 nM
24 | C[C@@H]1CN(c2cccc(NC(=O)c3ccc(NS(=O)(=O)CCC(F)(F)F)cc3N3CCC4(CC3)CC4)n2)CCO1 [Example 7-14, (R)-N-(6-(2-Methylmorpholino)pyridin-2-yl)-2-(6-azaspiro[2.5]octan-6-yl)-4-((3,3,3-trifluoropropyl)sulfonamido)benzamide] | 343 nM
25 | C[C@@H]1CN(c2cccc(NC(=O)c3ccc(NS(=O)(=O)C4(F)CC4)cc3N3CCC4(CC3)CC4)n2)CCO1 [Example 7-15, (R)-4-((1-Fluorocyclopropane)-1-sulfonamido)-N-(6-(2-methylmorpholino)pyridin-2-yl)-2-(6-azaspiro[2.5]octan-6-yl)benzamide] | 90 nM
26 | C[C@@H]1CN(c2cccc(NC(=O)c3ccc(NS(=O)(=O)C(C)(C)C)cc3N3CCC4(CC3)CC4)n2)CCO1 [Example 7-16, (R)-4-((1,1-Dimethylethyl)sulfonamido)-N-(6-(2-methylmorpholino)pyridin-2-yl)-2-(6-azaspiro[2.5]octan-6-yl)benzamide] | 67 nM
27 | Cc1cc(NC(=O)c2ccc(NS(=O)(=O)CCO)cc2N2CCC3(CC2)CC3)nc(N2CCOCC2)c1 [Example 7-17, 4-((2-Hydroxyethyl)sulfonamido)-N-(4-methyl-6-morpholinopyridin-2-yl)-2-(6-azaspiro[2.5]octan-6-yl)benzamide] | 17 nM
28 | Cc1cc(NC(=O)c2ccc(NS(=O)(=O)CCO)cc2N2CCC3(CC2)CC3)nc(N2CCO[C@H](C)C2)c1 [Example 7-18, (R)-4-((2-Hydroxyethyl)sulfonamido)-N-(4-methyl-6-(2-methylmorpholino)pyridin-2-yl)-2-(6-azaspiro[2.5]octan-6-yl)benzamide] | 74 nM
29 | Cc1cc(NC(=O)c2ccc(NS(=O)(=O)CCO)cc2N2CCC3(CC2)CC3)nc(N2CCO[C@@H](C)C2)c1 [Example 7-19, (S)-4-((2-Hydroxyethyl)sulfonamido)-N-(4-methyl-6-(2-methylmorpholino)pyridin-2-yl)-2-(6-azaspiro[2.5]octan-6-yl)benzamide] | 49 nM
30 | O=C(Nc1cccc(N2CCOCC2)n1)c1ccc(NS(=O)(=O)CCO)cc1N1CCC2(CC1)CC2 [Example 7-20, 4-((2-Hydroxyethyl)sulfonamido)-N-(6-morpholinopyridin-2-yl)-2-(6-azaspiro[2.5]octan-6-yl)benzamide] | 36 nM
